The results in this text go back to patent US20250074901A1, “NOVEL HETEROARYL COMPOUNDS” (ICAGEN, LLC, priority 2021, published 2025).

In general, Emax refers to the size of the effect at its maximum, as opposed to the concentration needed. Usually EC50 stands for the concentration needed to bring the measured effect to its halfway point. Low readings indicate a more potent agent, high ones a less potent agent.

In this assay the target is T1, Kv7.2 (Homo sapiens, UniProt O43526).
T1 construct: expressed in transfected cells
As to the kind of experiment: Activation of Kv7.2 (in vitro assay, concentration response curve). The assay is classed as cell-based. The following applies: for Emax: Kv7.2 activation max %; for EC50: activation of Kv7.2. The procedure, abridged:
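EC50 is the half-maximal effective concentration, relative to the Emax observed for each compound in this in vitro assay. It was derived from concentration–response curves of the agonistic effect measured over a series of concentrations.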

`CC(F)COc1cc(CNC(=O)NC23CCC(F)(CC2)CC3)ccn1` (stereo not shown) [Example 88, 1-(4-fluoro-1-bicyclo[2.2.2]octanyl)-3-[[2-(2-fluoropropoxy)pyridin-4-yl]methyl]urea]: the Emax was found to be 43% and the EC50 turned out to be 440 nM.
On the same counts, the results for `O=C(NCc1ccnc(OC(F)F)c1)NCC1CC(F)C1` (stereo not shown) [Example 89, 1-[[2-(difluoromethoxy)pyridin-4-yl]methyl]-3-[(3-fluorocyclobutyl)methyl]urea] are 46% and 1040 nM.
`O=C(NCc1ccnc(OC(F)F)c1)NC1CCC(F)(F)CC1` [Example 90, 1-(4,4-difluorocyclohexyl)-3-[[2-(difluoromethoxy)pyridin-4-yl]methyl]urea] had an Emax of 62% and a concentration for a half-maximal effect (EC50) of 180 nM.
On the same counts, the results for `O=C(NC(CO)c1ccnc(OC(F)F)c1)N[C@H]1C[C@H](C(F)(F)F)C1` (stereo partly shown) [Example 91, 1-[1-[2-(difluoromethoxy)pyridin-4-yl]-2-hydroxyethyl]-3-[(1r,3r)-3-(trifluoromethyl)cyclobutyl]urea] are 82% and 1260 nM.
On the same counts, the results for `O=C(Nc1cccc(Cl)c1)NC(CO)c1ccnc(OCC(F)(F)F)c1` (stereo not shown) [Example 92, 1-(3-chlorophenyl)-3-[2-hydroxy-1-[2-(2,2,2-trifluoroethoxy)pyridin-4-yl]ethyl]urea] are 64% and 180 nM.
On the same counts, the results for `O=C(NCc1ccnc(OC(F)F)c1)NC1CCC(F)(F)C1` (stereo not shown) [Example 93, 1-(3,3-difluorocyclopentyl)-3-[[2-(difluoromethoxy)pyridin-4-yl]methyl]urea] are 56% and 450 nM.
In turn, `CC(C)(C)C(O)CNC(=O)NCc1ccnc(OC(F)F)c1` (stereo not shown) [Example 95, 1-[[2-(difluoromethoxy)pyridin-4-yl]methyl]-3-(2-hydroxy-3,3-dimethylbutyl)urea] showed an Emax of 43% and an EC50 of 1160 nM.
For `O=C(NCc1ccnc(OC(F)F)c1)Nc1nccc(Cl)n1` [Example 96, 1-(4-chloropyrimidin-2-yl)-3-[[2-(difluoromethoxy)pyridin-4-yl]methyl]urea] the same measures were 85% and 7220 nM.
`O=C(Nc1cccc(Cl)c1)NC(CO)c1ccnc(OC(F)F)c1` (stereo not shown) [Example 97, 1-(3-chlorophenyl)-3-[1-[2-(difluoromethoxy)pyridin-4-yl]-2-hydroxyethyl]urea] had an Emax of 55% and a half-maximal effective concentration (EC50) of 80 nM.
On the same counts, the results for `O=C(NCc1ccnc(OC(F)F)c1)Nc1cncc(Cl)n1` [Example 98, 1-(6-chloropyrazin-2-yl)-3-[[2-(difluoromethoxy)pyridin-4-yl]methyl]urea] are 48% and 810 nM.
For `O=C(NCc1ccnc(OC(F)F)c1)N[C@H]1C[C@](O)(C(F)(F)F)C1` [Example 100, 1-[[2-(difluoromethoxy)pyridin-4-yl]methyl]-3-[(1s,3s)-3-hydroxy-3-(trifluoromethyl)cyclobutyl]urea] the same measures were 40% and 3660 nM.
In the case of `O=C(NCc1ccnc(OC(F)F)c1)N[C@H]1CC[C@@H]2CCC[C@@H]21` [Example 103, 1-[(1S,3aS,6aS)-1,2,3,3a,4,5,6,6a-octahydropentalen-1-yl]-3-[[2-(difluoromethoxy)pyridin-4-yl]methyl]urea], the maximum response (Emax) was 71% and the EC50 is 30 nM.
As for `O=C(NCc1ccnc(OC(F)F)c1)N[C@H]1C[C@H]2CCC[C@H]2C1` [Example 105], the maximal effect (Emax) was 78% and a half-maximal effect (EC50) was put at 40 nM.
Compound `O=C(NCc1ccnc(OC(F)F)c1)NC(C1CC1)C(F)(F)F` (stereo not shown) [Example 106, 1-(1-cyclopropyl-2,2,2-trifluoroethyl)-3-[[2-(difluoromethoxy)pyridin-4-yl]methyl]urea] displayed an Emax of 47% and an EC50 of 820 nM.
Compound `O=C(NCc1ccnc(OC(F)F)c1)NC1CC(F)(F)C1` [Example 108, 1-(3,3-difluorocyclobutyl)-3-[[2-(difluoromethoxy)pyridin-4-yl]methyl]urea] yielded an Emax of 51% and an EC50 of 2080 nM.
In turn, `CC(C)(C)CCNC(=O)NCc1ccnc(OC(F)F)c1` [Example 109, 1-[[2-(difluoromethoxy)pyridin-4-yl]methyl]-3-(3,3-dimethylbutyl)urea] came in with an Emax of 51% and an EC50 of 300 nM.
For the compound `O=C(NCc1ccnc(OC(F)F)c1)NC1(CC(F)(F)F)CC1` [Example 110, 1-[[2-(difluoromethoxy)pyridin-4-yl]methyl]-3-[1-(2,2,2-trifluoroethyl)cyclopropyl]urea], the Emax is 40% and the midpoint of the response, the EC50, lay at 1230 nM.
For the compound `O=C(NCc1ccnc(OC(F)F)c1)NC1CCCC1(F)F` (stereo not shown) [Example 113, 1-(2,2-difluorocyclopentyl)-3-[[2-(difluoromethoxy)pyridin-4-yl]methyl]urea], the Emax worked out at 77% and the EC50 was 3490 nM.
For `O=C(NCc1ccnc(OC(F)F)c1)NN1CC2CCCC2C1` (stereo not shown) [Example 114, 1-(3,3a,4,5,6,6a-hexahydro-1H-cyclopenta[c]pyrrol-2-yl)-3-[[2-(difluoromethoxy)pyridin-4-yl]methyl]urea] the same measures were 68% and 7430 nM.
On the same counts, the results for `O=C(NCc1ccnc(OC(F)F)c1)N[C@@H]1CCC(F)(F)C1` [Example 115, 1-[(1R)-3,3-difluorocyclopentyl]-3-[[2-(difluoromethoxy)pyridin-4-yl]methyl]urea] are 48% and 330 nM.
`O=C(NCc1ccnc(OC(F)F)c1)N[C@H]1CCC(F)(F)C1` [Example 116, 1-[(1S)-3,3-difluorocyclopentyl]-3-[[2-(difluoromethoxy)pyridin-4-yl]methyl]urea] came in with a maximal response (Emax) of 58% and a concentration giving a half-maximal response (EC50) of 320 nM.
Compound `O=C(NC(CCO)c1ccnc(OC(F)F)c1)N[C@H]1C[C@H](C(F)(F)F)C1` (stereo partly shown) [Example 117, 1-[1-[2-(difluoromethoxy)pyridin-4-yl]-3-hydroxypropyl]-3-[(1r,3r)-3-(trifluoromethyl)cyclobutyl]urea] displayed an Emax of 94% and an EC50 of 1900 nM.
On to `COC(CNC(=O)NCc1ccnc(OC(F)F)c1)C(F)(F)F` (stereo not shown) [Example 119, 1-[[2-(difluoromethoxy)pyridin-4-yl]methyl]-3-(3,3,3-trifluoro-2-methoxypropyl)urea], for which the Emax worked out at 41% and the EC50 stood at 1600 nM.
`CC(F)(F)COc1cc(CNC(=O)N[C@H]2C[C@H](C(F)(F)F)C2)ccn1` [Example 121, 1-[[2-(2,2-difluoropropoxy)pyridin-4-yl]methyl]-3-[(1r,3r)-3-(trifluoromethyl)cyclobutyl]urea] registered an Emax of 62% and an EC50 of 120 nM.
On the same counts, the results for `CC(F)(F)COc1cc(CNC(=O)NC23CCC(F)(CC2)CC3)ccn1` [Example 122, 1-[[2-(2,2-difluoropropoxy)pyridin-4-yl]methyl]-3-(4-fluoro-1-bicyclo[2.2.2]octanyl)urea] are 61% and 190 nM.
Compound `[2H]C([2H])(NC(=O)NCc1ccnc(OC(F)F)c1)C1CCC1` [Example 125, 1-[cyclobutyl(dideuterio)methyl]-3-[[2-(difluoromethoxy)pyridin-4-yl]methyl]urea] returned an Emax of 62% and an EC50 of 750 nM.
In turn, `Cc1cccc(NC(=O)NCc2ccnc(OC(F)F)c2)c1` [Example 126, 1-[[2-(difluoromethoxy)pyridin-4-yl]methyl]-3-(3-methylphenyl)urea] came in with an Emax of 50% and an EC50 of 650 nM.
`COc1cc(CNC(=O)N[C@H]2C[C@H](C(F)(F)F)C2)ccn1` [Example 128, 1-[(2-methoxypyridin-4-yl)methyl]-3-[(1r,3r)-3-(trifluoromethyl)cyclobutyl]urea] had an Emax of 75% and an EC50 of 5360 nM.
The compound `COc1cc(CNC(=O)NC23CCC(F)(CC2)CC3)ccn1` [Example 129, 1-(4-fluoro-1-bicyclo[2.2.2]octanyl)-3-[(2-methoxypyridin-4-yl)methyl]urea] yielded an Emax of 53% and an EC50 of 4970 nM.
On to `O=C(NCc1ccnc(OC(F)F)c1)NC12CCC(CC1)CC2` [Example 131, 1-(1-bicyclo[2.2.2]octanyl)-3-[[2-(difluoromethoxy)pyridin-4-yl]methyl]urea], for which the Emax is 61% and the midpoint of the response, the EC50, lay at 170 nM.
With `O=C(NCc1ccnc(OC(F)F)c1)Nc1cccc(CF)c1` [Example 132, 1-[[2-(difluoromethoxy)pyridin-4-yl]methyl]-3-[3-(fluoromethyl)phenyl]urea], the Emax came to 43% and the midpoint of the response, the EC50, lay at 1070 nM.
`O=C(NCc1ccnc(OC(F)F)c1)N[C@@H]1CC[C@@H]2[C@H]1C2(F)F` [Example 133, 1-[(1R,2R,5R)-6,6-difluoro-2-bicyclo[3.1.0]hexanyl]-3-[[2-(difluoromethoxy)pyridin-4-yl]methyl]urea] came in with an Emax of 62% and an EC50 of 600 nM.
In the case of `O=C(NCc1ccnc(OC(F)F)c1)N[C@H](C1CC1)C(F)(F)F` [Example 134, 1-[(1R)-1-cyclopropyl-2,2,2-trifluoroethyl]-3-[[2-(difluoromethoxy)pyridin-4-yl]methyl]urea], the Emax turned out to be 43% and the response was half-maximal at 550 nM (EC50).
For `O=C(NCc1ccnc(OC(F)F)c1)N[C@@H](C1CC1)C(F)(F)F` [Example 135, 1-[(1S)-1-cyclopropyl-2,2,2-trifluoroethyl]-3-[[2-(difluoromethoxy)pyridin-4-yl]methyl]urea], the Emax was determined as 68% and a half-maximal effect (EC50) was put at 1110 nM.
As for `O=C(NCc1ccnc(OC(F)F)c1)N[C@H]1C[C@H](C(F)F)C1` [Example 136, 1-[[2-(difluoromethoxy)pyridin-4-yl]methyl]-3-[(1r,3r)-3-(difluoromethyl)cyclobutyl]urea], the Emax is 50% and the response was half-maximal at 280 nM (EC50).
